From patent US8163739B2, “2-arylthiazole-4-carboxamide derivatives, their preparation and use as pharmaceuticals” (Bayer Pharma Aktiengesellschaft, priority 2007, dated 2012)

tested on: TLR7; assay: TLR-induced cytokine release in human peripheral blood mononuclear cells (PBMC), TNF-alpha ELISA; assay type: cell-based; conditions: 18 hours incubation, TLR7 ligand, TNF-alpha by ELISA, read-out: EC50 (TNF-α TLR7)
Method: TLR-induced Cytokine Release in Human “Peripheral Blood Mononuclear Cells” (PBMC)
PBMCs isolated from human whole blood are stimulated using a TLR ligand.
The cytokine determination is carried out by means of ELISA kits; a proliferation/cell metabolism determination is carried out using Alamar Blue.
For the cell preparation, about 200 ml of blood are treated with an anticoagulant (e.g. citrate Monovettes). Per Leucosep tube, 15 ml of Histopaque (room temperature, RT) are poured in and forced downwards through the inserted frit by brief initial centrifugation (one minute at 1000×g, RT). 20 ml of blood are added to the tubes prepared in this way and centrifuged at 800×g for 15 minutes (RT). After centrifugation, the following layered arrangement results from the top to the bottom:
plasma-PBMC-Histopaque-filter disc-Histopaque-erythrocytes and granulocytes. The supernatant plasma is aspirated. The PBMC are transferred together with the underlying Histopaque to a new 50 ml tube, the contents of two Leucosep tubes always being added to one 50 ml tube. The 50 ml tubes are then filled to 50 ml with PBS. This cell suspension is centrifuged at 300×g (RT) for 10 minutes.
The liquid supernatant is tipped off and the cell pellet is resuspended with a little PBS and subsequently filled to 50 ml with PBS. This washing step is repeated twice. The resulting pellet is taken up in a defined volume of medium (with additives). For the testing of the substances, PBMC are incubated for 18 hours with titrated concentrations of the test substances, e.g. in the presence or absence of TLR7 or TLR9 ligands. On the next day, the supernatants are investigated for the content of TNF-alpha or other cyto- or chemokines by means of specific ELISA. The metabolic activity of the treated cells is determined with the aid of Alamar Blue.

SMILES	EC50 [nM]
Cn1ncc(NC(=O)c2csc(-c3ccc4c(c3)CCO4)n2)c1C(N)=O [Example 2.1, N-[5-(Aminocarbonyl)-1-methyl-1H-pyrazol-4-yl]-2-(2,3-dihydro-5-benzofuranyl)-4-thiazolecarboxamide]	1200
Cn1cc(NC(=O)c2csc(-c3cccc(S(C)(=O)=O)c3)n2)c(C(N)=O)n1 [Example 1.1, 2-(3-Methanesulphonylphenyl)thiazole-4-(3-carbamoyl-1-methyl-1H-pyrazol-4-yl)carboxamide]	85
CN1CCc2c(sc(NC(=O)c3csc(-c4ccc5c(c4)CCO5)n3)c2C(N)=O)C1 [Example 2.5, 2-{[2-(2,3-Dihydrobenzofuran-5-yl)thiazole-4-carbonyl]amino}-6-methyl-4,5,6,7-tetrahydrothieno[2,3-c]pyridine-3-carboxamide]	1100
COc1ccc(-c2nc(C(=O)Nc3ccccc3C(N)=O)cs2)cc1F [Example 3.4, N-[2-(Aminocarbonyl)phenyl]-2-(3-fluoro-4-methoxyphenyl)-4-thiazole-carboxamide]	120
NC(=O)c1ccccc1NC(=O)c1csc(-c2ccc3c(c2)OCO3)n1 [Example 3.1, N-[2-(Aminocarbonyl)phenyl]-2-(3,4-methylenedioxyphenyl)-4-thiazolecarboxamide]	300
CS(=O)(=O)c1cccc(-c2nc(C(=O)Nc3ccccc3C(N)=O)cs2)c1 [Example 3.2, N-[2-(Aminocarbonyl)phenyl]-2-(3-methylsulphonylphenyl)-4-thiazole-carboxamide]	3400
